The results in this text go back to article PMC9228592, “Dichloroacetyl Amides of 3,5-Bis(benzylidene)-4-piperidones Displaying Greater Toxicity to Neoplasms than to Non-Malignant Cells” (Medicines, 2022).

Common to all, as to type: cell-based, human
The test system of series [1] is Ca9-22 cells. In words: Cell cycle assay in Ca9-22 cells. To be noted: 20 h. On the procedure:
The evaluation of varying quantities of 1d,e,k on the cell cycle in Ca9-22 cells was undertaken by a literature method. In brief, Ca9-22 cells were treated for 20 h without (control) or with the indicated concentrations of the test samples. To neglect the cytotoxicity effect of DMSO, all samples contained 0.1% DMSO. Cells (approximately 10^6 cells) were harvested, fixed for 1 h on ice with 1% paraformaldehyde, washed twice by phosphate-buffered saline, treated for 30 min at 37 °C with 0.2 mg/mL RNase A (ribonuclease A), stained for 15 min at room temperature with 0.01% propidium iodide in the presence of 0.01% NP-40 (nonyl phenoxypolyethoxyethanol) to prevent cell aggregation, filtered through Falcon® cell strainers (pore size: 40 µm) (Corning, NY, USA), subjected to cell sorting (SH800 Series; SONY Imaging Products and Solutions Inc., Kanagawa, Japan), and then analyzed with Cell Sorter Software version 2.1.2. (SONY Imaging Products and Solutions Inc., Kanagawa, Japan).

For series [2], the system named is Ca9-22 cells. In words: Mitotic accumulation in Ca9-22 cells. To be noted: two highest concentrations of 3, 10, 30 times the CC50 value, 20 h. The protocol:
Another way in which cytotoxicity could occur is by initiating mitosis. In order to examine this possibility, different concentrations of the potent cytotoxin 1k that were 3, 10, and 30 times the CC50 value were incubated with Ca9-22 cells for 20 h. […] In order to explore the possibility that the dichloroacetyl group contributed to this effect, concentrations of 2a that were 3, 10, and 30 times the CC50 concentration were incubated with Ca9-22 cells for 20 h. […] The question arose as to the way in which this observation could be useful in anticancer drug design. Cells which are stimulated to divide are likely more sensitive to a subsequent attack of a cytotoxin when cells are in a resting stage, for example.

The nature of series [3]: Cytotoxicity (MTT, 48 h) against HPLF non-malignant cells. To be noted: human, normal periodontal ligament fibroblasts (HPLF), mean ± S.D. of triplicate. The source says: (§1) The target cells used in our study were human oral squamous cell carcinoma cell lines Ca9-22 (purchased from RIKEN Cell Bank, Tukuba, RCB-1976), HSC-2 (RCB1945), HSC-3 (RCB1975), HSC-4 (RCB1902), and three human normal oral cells, gingival fibroblast (HGF), periodontal ligament fibroblast (HPLF), and pulp cells (HPC) [established from the first premolar extracted tooth in the lower jaw (because of dysfunctional position or orthodontic treatment) and periodontal tissues of a child, according to the guideline of the Institutional Board of Meikai University Ethics Committee (No. A0808)], after obtaining informed consent from the patients. These cells were incubated for 48 h with the indicated concentrations of test samples or reference compounds sodium dichloroacetate (purchased from Sigma-Aldrich Chemical Company, Saint Louis, MO, USA), 5-fluorouracil (5-FU) from Kyowa (Tokyo, Japan), and doxorubicin (DXR) (St. Louis, MO, USA) and vehicle (DMSO) (0.008, 0.016, 0.031, 0.063, 0.125, 0.25, 0.5, and 1%) in Dulbecco’s Modified Eagle Medium (DMEM) media, which was supplemented with 10% heat-inactivated fetal bovine serum. Cell viability was determined by the MTT method. Cytotoxicity caused by the vehicle (DMSO) was subtracted.

Series [4] deals with Ca9-22, HSC-2, HSC-3, and HSC-4 cells. In words: Average cytotoxicity, selectivity and PSE over the four carcinoma lines.
Text: as §1
(§2) SI was calculated by dividing the average CC50 value (concentration of the compound to kill 50% of the cells) of the compound towards HGF, HPLF, and HPC cells by the CC50 value of the compound against a specific neoplastic cell line.
PSE reflects both the potencies and differences in cytotoxicity to neoplasms and non-malignant cells. This value was the product of the reciprocal of the average CC50 value of the compounds towards Ca9-22, HSC-2, HSC-3, and HSC-4 cells and the average SI value × 100.

Series [5] in a line: Average cytotoxicity over the three non-malignant cells. The note with it: female, human, normal oral cells HGF, HPLF and HPC (average over the three).
Text: as §1

A further series relates to procaspase 3. In words: Procaspase 3 cleavage in Ca9-22 cells (Western blot). The note with it: 0.2 and 0.6 µM, 20 h. The protocol:
(§3) The effect of 20 h incubation of different concentrations of 1k and 2a with Ca9-22 cells on the cleavage of PARP and procaspase 3 cleavage was undertaken using a reported procedure. In brief, the control and treated Ca9-22 cells at near confluent phase were collected and lysed, and protein samples of cell lysates (15 µg) were applied to SDS-polyacrylamide gel electrophoresis. After electrophoresis, the separated proteins were transferred onto a PVDF (polyvinylidene fluoride) filter. The blots were treated in skim milk and then probed for 120 min with a primary antibody cocktail (1:250) from an Apoptosis Western Blot Cocktail kit (purchased from Abcam, Cambridge, UK). The blots were washed and probed with horseradish peroxidase conjugated secondary antibody cocktail (1:100). Immunoreactivities were determined using Amer-sham ECL Select. Images were acquired using ChemiDoc MP System and Image Lab 4.1 software (Bio-Rad Laboratories, Hercules, CA, USA).
(In general: Immunoblotting shows a protein as a band on a membrane.)

Series [6] in a line: Cytotoxicity (MTT, 48 h) against HPC non-malignant cells. The note with it: female, human, normal pulp cells (HPC), mean ± S.D. of triplicate.
Text: as §1

The next series relates to PARP. In words: PARP cleavage in Ca9-22 cells (Western blot). The note with it: 0.2 and 0.6 µM, 20 h. The protocol:
as §3

For series [7], the system named is Ca9-22 squamous cell carcinoma cells. In words: Cytotoxicity (MTT, 48 h) against Ca9-22 cells. To be noted: Homo sapiens, Ca9-22; 48 h, MTT, mean ± S.D. of triplicate.
Text: as §1, §2

The test system of series [8] is HSC-3 squamous cell carcinoma cells. In words: Cytotoxicity (MTT, 48 h) against HSC-3 cells.
Text: as §1, §2

The subject of series [9] is HSC-2 squamous cell carcinoma cells. In words: Cytotoxicity (MTT, 48 h) against HSC-2 cells.
Text: as §1, §2

Series [10] in a line: Cytotoxicity (MTT, 48 h) against HGF non-malignant cells. To be noted: human, normal gingival fibroblasts (HGF), mean ± S.D. of triplicate.
Text: as §1

For series [11], the system named is HSC-4 squamous cell carcinoma cells. In words: Cytotoxicity (MTT, 48 h) against HSC-4 cells.
Text: as §1, §2

In general, CC50 refers to the concentration at which the toxic effect on the cells reaches its halfway point. For the compound `O=C1/C(=C/c2ccc([N+](=O)[O-])cc2)CN(C(=O)C(Cl)Cl)C/C1=C\c1ccc([N+](=O)[O-])cc1` [Compound 1k], the subG1 population result with Ca9-22 cells [1] (0.8 µM) is given as “slight increase”. Further, the G2M cell population entry with Ca9-22 cells [1] (0.8 µM, p < 0.05) is recorded as “most prominent increase”. For the same compound, the “effect on the cell cycle” value in the series with Ca9-22 cells [1] (0.1, 0.2, and 0.4 µM) is recorded as “little effects”. Moreover, the “percentage of the cells undergoing mitosis” value in the series on Ca9-22 cells [2] was “increased significantly”. Further, the CC50 at 48 h in [3] is 760 ± 130 nM; in series [5], 1440 nM; in series [6], 560 ± 80 nM; in series [10], 3010 ± 330 nM. Moreover, the CC50 in series [4] (Homo sapiens, average over Ca9-22, HSC-2, HSC-3, HSC-4) turned out to be 100 nM; in series [7], 20 ± 10 nM; in series [8] (Homo sapiens, HSC-3, 48 h, MTT, mean ± S.D. of triplicate), 100 ± 30 nM; in [9] (Homo sapiens, HSC-2, 48 h, MTT, mean ± S.D. of triplicate), 80 ± 10 nM; in series [11] (Homo sapiens, HSC-4, 48 h, MTT, mean ± S.D. of triplicate) it was 180 ± 40 nM. In [4] (average CC50 compared with 5-FU), the “average potency figure relative to 5-FU (times lower)” value amounted to 310 times. For the same compound, the “Average SI” value in [4] (average of SI over Ca9-22, HSC-2, HSC-3, HSC-4) is on record as 28.1. Moreover, the “cleavage of procaspase to caspase 3” value in the series with procaspase 3 was “cleavage of procaspase to caspase 3 was observed”. In addition, in the series on PARP, the PARP cleavage entry is recorded as “PARP was cleaved”. For the same compound, in series [8] (average CC50 towards HGF, HPLF, HPC divided by CC50 against HSC-3), the “SI (HSC-3)” value is on record as 14.4. In series [9] (48 h, MTT, mean ± S.D. of triplicate), the “HSC-2 CC50” value is “double-digit nanomolar”. The “SI (HSC-2)” value in [9] (average CC50 towards HGF, HPLF, HPC divided by CC50 against HSC-2) is 18.0. The “SI (HSC-4)” value in [11] (average CC50 towards HGF, HPLF, HPC divided by CC50 against HSC-4) is recorded as 8.00.
